In this test the target is full-length recombinant human FYN A (Homo sapiens (Human), UniProt P06241). Kind of test: ADP-Glo Kinase Assay of FYN kinase inhibition. The format is biochemical. As to conditions: primary screen, initial compounds. The text has this: The chemical library was comprised of the SoftFocus ATP-competitive hinge binding compounds described by Harris, C. J., Hill, R. D., Sheppard, D. W., et al., The Design and Application of Target-Focused Compound Libraries. Combinatorial Chemistry and High Throughput Screening 14:521-31 (2011). The specific pharmacore chemistries included SFK52 comprising 6-[R2]-3-[R1]imidazo[1,2-b] pyridazine compounds, SFK33 comprising N-(3-[R2] imidazo [1,2-b] pyridazin-6-yl) [R1] amine compounds, SFK49 comprising N-(5-[R2] imidazo [2,1-b][1,3,4] thiadiazol-2-yl)[R1]-amine compounds, SFK 40 comprising 5-[R2]-3-[R1] pyridin-2-amine compounds, SFK43 comprising 6-[R2]-3-[R1]imidazo[1,2-a]pyrazine compounds, and SFK63. The chemical structures of the initial 600 potential kinase inhibitors are presented in Table 3, with those chosen for additional analysis presented in Table 4. Comparison of the compounds presented in Table 1 and those of Tables 2, 3 and 4, illustrate the novelty of the chemical structures claimed herein.
Sequence of full-length recombinant human FYN A (P06241 whole entry): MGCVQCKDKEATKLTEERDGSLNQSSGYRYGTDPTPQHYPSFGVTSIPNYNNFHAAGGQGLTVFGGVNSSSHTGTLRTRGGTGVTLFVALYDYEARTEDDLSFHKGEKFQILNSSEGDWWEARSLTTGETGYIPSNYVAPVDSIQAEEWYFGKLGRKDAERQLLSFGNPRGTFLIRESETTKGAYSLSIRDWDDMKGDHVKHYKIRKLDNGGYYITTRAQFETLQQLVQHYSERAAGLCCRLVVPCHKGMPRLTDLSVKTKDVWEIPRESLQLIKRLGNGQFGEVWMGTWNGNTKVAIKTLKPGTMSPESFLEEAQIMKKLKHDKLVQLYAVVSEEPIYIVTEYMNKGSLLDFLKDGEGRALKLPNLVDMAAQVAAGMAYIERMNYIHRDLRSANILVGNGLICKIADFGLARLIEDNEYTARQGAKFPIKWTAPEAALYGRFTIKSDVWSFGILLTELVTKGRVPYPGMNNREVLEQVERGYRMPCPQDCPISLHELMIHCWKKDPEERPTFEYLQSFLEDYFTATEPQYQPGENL
FYN kinase (10 micrograms) was from the FYN A Kinase Enzyme System (V3571, Promega UK Ltd.), a full-length recombinant human FYN A containing an N-terminal GST tag of about 85 kDa, expressed by bacullovirus in […] insect cells, supplied at a concentration of 0.1 microgram/microliter in 5×reaction buffer. The FYN substrate, a 12 amino acid peptide of the sequence […], containing a single tyrosine phosphorylation site, was custom synthesized (Peptide Synthetics, Peptide Protein Research, Fareham, UK) and supplied as a 4 mg/ml aqueous solution. All other reagents were obtained from Sigma (Sigma-Aldrich, Gillingham, Dorset, UK), with the exception of UltraPure ATP (V9102, Promega UK Ltd.) and the ATP-competitive broad spectrum protein kinase inhibitor staurosporine (569397, Merck Millipore, Watford, Hertfordshire, UK), or as otherwise indicated.
The assay procedure determines the IC50 of each potential FYN kinase inhibitor by measuring the enzyme catalyzed ATP-dependent phosphorylation of the FYN substrate peptide. The ADP-Glo™ Kinase Assay is specifically designed to quantify kinase activity by measuring the ADP produced in the reaction The reaction buffer comprises 40 mM Tris.HCl (pH 7.5), 20 mM MgCl2, 0.1 mg/ml BSA and 5 microM DTT. Individual compounds within the chemical library were dissolved in DMSO at known concentrations. Briefly, 2.5 microliters of reaction buffer containing 3 picograms of FYN kinase and serial dilutions of each potential FYN kinase inhibitor (9 3-fold dilutions of a 10 micromolar top sample) are placed into each well of a 384 well microtiter plate and incubated at room temperature for 30 minutes. An additional 2.5 microliters of reaction buffer containing 100 picograms of the FYN substrate and 12.5 picomoles of ATP are then added to each well and the reaction carried out for 90 minutes at room temperature. The reactions are terminated by addition of 5 microliters of the ADP-Glo™ Reagent component of the ADP-Glo™ Kinase Assay kit to each well. The ADP-Glo™ Reagent comprises an ATP-dependent adenylate cyclase, an inorganic pyrophosphatase and an excess of staurosporine. The adenylate cyclase converts the remaining ATP to cAMP and pyrophospahte, the pyrophosphatase converts the pyrophosphate to phosphate and the staurosporine inhibits the activity of the FYN kinase, the net effect is to remove all residual ATP while preserving the ADP produced by FYN kinase. The terminated reactions are incubated for 40 minutes at room temperature, prior to addition of the Kinase Detection Reagent component of the ADP-Glo™ Kinase Assay kit to each well. The Kinase Detection Reagent comprises pyruvate kinase, phosphoenol pyruvate (PEP), luciferin and luciferase. The pyruvate kinase converts PEP to pyruvate and in the process generates ATP from the residual ADP present in the terminated reaction. […]

With `COc1ccc(-c2cncc(-c3cccc(NC(C)=O)c3)n2)cc1` [035_0081_0280, N-[3-[6-(4-methoxyphenyl)pyrazin-2-yl]phenyl] acetamide], the IC50 was 3.5 µM.

Regarding `CC(=O)Nc1cccc(-c2cncc(-c3cccc(O)c3)n2)c1` [035_0081_0284, N-[3-[6-(3-hydroxyphenyl)pyrazin-2-yl]phenyl] acetamide], the IC50 turned out to be 3.88 µM.

`CCC(CO)Nc1cncc(-c2ccc(O)cc2)n1` (stereo not drawn) [035_0153_0080, 4-[6-[1-(hydroxymethyl)propylamino]pyrazin-2-yl]phenol]: the IC50 stood at 15.3 µM.

On to `CCC(CO)Nc1cncc(-c2cc(C(C)C)ccc2OC)n1` (stereo not drawn) [035_0153_0286, 2-[[6-(5-isopropyl-2-methoxy-phenyl)pyrazin-2-yl]amino]butan-1-ol], for which the IC50 came to 11.8 µM.

Take `CCC(CO)Nc1cncc(-c2ccc(N)cc2)n1` (stereo not drawn) [035_0153_0333, 2-[[6-(4-aminophenyl)pyrazin-2-yl]amino]butan-1-ol]: the IC50 is 21.1 µM.

Take `Nc1cccc(-c2cncc(NCc3ccccc3)n2)c1` [035_0232_0005, 6-(3-aminophenyl)-N-benzyl-pyrazin-2-amine]: the IC50 turned out to be 6.68 µM.

As to `COc1ccc(-c2cncc(-c3cccc(C(=O)NCCCN(C)C)c3)n2)cc1` [035_0280_0302, N-[3-(dimethylamino)propyl]-3-[6-(4-methoxyphenyl)pyrazin-2-yl]benzamide], the half-maximal inhibitory concentration (IC50) stood at 9.06 µM.

Regarding `COc1ccc(-c2cncc(-c3ccc(O)c(OC)c3)n2)cc1` [035_0280_0314, 2-methoxy-4-[6-(4-methoxyphenyl)pyrazin-2-yl]phenol], the IC50 worked out at 5.18 µM.

In the case of `COc1cc(Nc2cncc(-c3cccc(NC(C)=O)c3)c2)cc(OC)c1OC` [081_0087_0081, N-[3-[5-(3,4,5-trimethoxyanilino)-3-pyridyl]phenyl] acetamide], the IC50 was found to be 0.391 µM.

As to `C[C@@H](c1ccccc1)n1c(=O)[nH]c2ncc(-c3cccc(C(=O)N(C)C)c3)nc21` [170_0148_0349, N,N-dimethyl-3-[2-oxo-3-[(1S)-1-phenylethyl]-1H-imidazo[4,5-b]pyrazin-5-yl]benzamide], the IC50 was found to be 1.78 µM.

As to `COc1cccc(Cn2c(=O)[nH]c3ncc(-c4cc(OC)c(OC)c(OC)c4)nc32)c1` [170_4313_0087, 3-[(3-methoxyphenyl)methyl]-5-(3,4,5-trimethoxy-phenyl)-1H-imidazo[4,5-b]pyrazin-2-one], the IC50 was found to be 23.4 µM.

As for `CN(C)c1cccc(-c2cnc(Nc3ccc(N4CCOCC4)cc3)c3nccn23)c1` [184_0088_0135, 5-[3-(dimethyl-amino)phenyl]-N-(4-morpholino-phenyl) imidazo[1,2-a]pyrazin-8-amine], the IC50 was determined as 2.7 µM.

Consider `COCCNc1ccc2ncc(-c3ccsc3)n2n1` [229_0033_0074, N-(2-methoxy-ethyl)-3-(3-thienyl)imidazo [1,2-b]pyridazin-6-amine], for which the IC50 was 5.23 µM.

Regarding `COCCNc1ccc2ncc(-c3ccc(OC)c(OC)c3)n2n1` [229_0033_0079, 3-(3,4-dimethoxy-phenyl)-N-(2-methoxyethyl) imidazo[1,2-b]pyridazin-6-amine], the IC50 stood at 1.55 µM.

For `COCCNc1ccc2ncc(-c3ccc(F)cc3)n2n1` [229_0033_0339, 3-(4-fluoro-phenyl)-N-(2-methoxyethyl) imidazo[1,2-b]pyridazin-6-amine], the IC50 came out at 4 µM.

In the case of `c1ccc(-c2cnc3ccc(NCc4ccco4)nn23)cc1` [229_0144_0061, N-(2-furylmethyl)-3-phenyl-imidazo[1,2-b]pyridazin-6-amine], the IC50 turned out to be 6.38 µM.

Regarding `COc1cc(-c2cnc3ccc(NCc4ccco4)nn23)cc(OC)c1OC` [229_0144_0086, N-(2-furylmethyl)-3-(3,4,5-trimethoxyphenyl) imidazo[1,2-b]pyridazin-6-amine], the IC50 amounted to 4.9 µM.

As for `O=C(O)c1ccc(-c2cnc3ccc(NCc4ccco4)nn23)cc1` [229_0144_0140, 4-[6-(2-furylmethyl-amino)imidazo[1,2-b]pyridazin-3-yl]benzoic acid], the IC50 was found to be 3.88 µM.

(Values after patent US10688093B2, “Methods, compositions, and uses of novel Fyn kinase inhibitors” (priority 2015, dated 2020).)
